From PubChem BioAssay (NCI)
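Method: 48-hour compound exposure of cells in 96-well plates, five concentrations, linear interpolation of endpoints. TGI marks complete inhibition of growth.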

Legend:
Assay in all cases: NCI tumour cell line growth inhibition, 48 h
ACHN renal = system: ACHN renal
HL-60(TB) leukemia = system: HL-60(TB) leukemia
HOP-62 NSCLC = system: HOP-62 NSCLC
HOP-92 NSCLC = system: HOP-92 NSCLC
K-562 leukemia = system: K-562 leukemia
MCF7 breast = system: MCF7 breast
MDA-MB-231 breast = system: MDA-MB-231 breast
MDA-MB-435 = system: MDA-MB-435
MOLT-4 leukemia = system: MOLT-4 leukemia
NCI-H226 lung = system: NCI-H226 lung
NCI-H23 lung = system: NCI-H23 lung
OVCAR-5 ovarian = system: OVCAR-5 ovarian
SK-MEL-28 melanoma = system: SK-MEL-28 melanoma
SNB-75 CNS = system: SNB-75 CNS
T-47D breast = system: T-47D breast
TK-10 renal = system: TK-10 renal
U251 CNS = system: U251 CNS
UACC-257 melanoma = system: UACC-257 melanoma
UO-31 renal = system: UO-31 renal
SK-MEL-5 melanoma = system: SK-MEL-5 melanoma

Row | Compound | TGI (ACHN renal) [µM] | TGI (HL-60(TB) leukemia) [µM] | TGI (HOP-62 NSCLC) [µM] | TGI (HOP-92 NSCLC) [µM] | TGI (K-562 leukemia) [µM] | TGI (MCF7 breast) [µM] | TGI (MDA-MB-231 breast) [µM] | TGI (MDA-MB-435) [µM] | TGI (MOLT-4 leukemia) [µM] | TGI (NCI-H226 lung) [µM] | TGI (NCI-H23 lung) [µM] | TGI (OVCAR-5 ovarian) [µM] | TGI (SK-MEL-28 melanoma) [µM] | TGI (SNB-75 CNS) [µM] | TGI (T-47D breast) [µM] | TGI (TK-10 renal) [µM] | TGI (U251 CNS) [µM] | TGI (UACC-257 melanoma) [µM] | TGI (UO-31 renal) [µM] | TGI (SK-MEL-5 melanoma) [µM]
1 | N#Cc1c(NCCc2ccc(F)cc2)c2ccccc2n2c1nc1ccccc12 | 35.2 | > 100 | > 100 | 19.8 | > 100 | > 100 | 36.3 | > 100 | > 100 | 55.4 | 39.1 | > 100 | > 100 | 30.8 | 95.6 | 60.8 | 61 | > 100 | 39.5 | –
2 | c1ccc(C2SCc3nc4cc5ccccc5cc4n32)cc1 (stereo not given) | > 100 | – | > 100 | > 100 | > 100 | > 100 | > 100 | > 100 | > 100 | > 100 | > 100 | > 100 | > 100 | > 100 | > 100 | > 100 | > 100 | > 100 | > 100 | –
3 | O=c1oc2nc(-c3ccccc3)cc(C(F)(F)F)c2n1Cc1ccccc1 | > 100 | – | > 100 | > 100 | > 100 | > 100 | > 100 | 3.13 | > 100 | > 100 | > 59.6 | > 100 | > 100 | – | > 45 | > 100 | > 100 | > 100 | > 100 | > 100
4 | CCC(=O)N1NC(=O)C(CC)(CC)C1=O | > 100 | > 100 | > 100 | – | > 100 | > 100 | > 100 | > 100 | > 100 | > 100 | > 100 | > 100 | > 100 | > 100 | > 100 | > 100 | > 100 | > 100 | > 100 | > 100
5 | COC(=O)C1C(OC(=O)C(Cl)(c2ccccc2)c2ccccc2)CC2CCC1N2C (stereo not given) | > 100 | > 100 | > 100 | – | > 100 | > 100 | > 100 | > 100 | > 100 | > 100 | > 100 | > 100 | > 100 | > 100 | > 100 | > 100 | > 100 | > 100 | > 100 | > 100
6 | O=C(CC(C(=O)c1ccco1)c1cccs1)c1cccs1 (stereo not given) | > 100 | 60.3 | > 100 | > 100 | – | > 100 | > 100 | > 100 | – | > 100 | > 100 | > 100 | > 100 | > 100 | > 100 | > 100 | > 100 | > 100 | > 100 | > 100
7 | Oc1ccc2oc3c(O)c4ccccc4cc3c2c1 | 21 | 13.5 | > 100 | 41.6 | 1.3 | 18.8 | 36 | 5.33 | 11.9 | – | 65.3 | – | > 100 | – | 55.4 | 45 | 21.1 | > 100 | 15.8 | 7.5
8 | C=CCCCC1SC2=C(CC)CCCN2C1=O (stereo not given) | > 100 | > 100 | > 100 | > 100 | > 100 | > 100 | > 100 | > 100 | > 100 | > 100 | > 100 | > 100 | > 100 | – | > 100 | > 100 | > 100 | 63.1 | > 100 | > 100
9 | C1=Nc2sc3c(c2C2=NCCN12)CCCC3 | 30.8 | 36.5 | 37.2 | – | > 100 | 33.7 | 30.3 | 41 | 36.4 | 33.2 | 29.3 | 35.9 | 41 | 34.9 | 39.9 | 30.7 | 41.7 | 30 | 30.1 | 34.3
10 | C=C1CCCCCCCCCCC12SCCC2CCCCSC (stereo not given) | 38.9 | 44.7 | 40.9 | 62.5 | 44 | 39.3 | 39 | 75.7 | 40.1 | 36.2 | 56.9 | 40 | 57.8 | – | 43.8 | – | 33.8 | 52.8 | 60.4 | 33.1
11 | Nc1c(-c2nc3ccccc3o2)sc(=S)n1-c1ccc(Cl)cc1 | 24.1 | > 100 | 15.8 | 63.3 | > 100 | > 100 | 64.5 | > 100 | > 100 | 67.1 | 37.8 | > 100 | 37.7 | – | 33.1 | > 100 | 37.5 | 95.6 | > 100 | 56.9
12 | CO/N=C(/C(=O)N(C(=O)/C(=N/OC)c1csc(NC(c2ccccc2)(c2ccccc2)c2ccccc2)n1)n1cnn(CC(=O)OC(C)(C)C)c1=O)c1csc(NC(c2ccccc2)(c2ccccc2)c2ccccc2)n1 | > 10 | > 10 | > 10 | – | > 10 | > 10 | > 10 | > 10 | > 10 | > 10 | > 10 | > 10 | > 10 | > 10 | > 10 | > 10 | > 10 | > 10 | > 10 | > 10
13 | Cc1ccc(S(=O)(=O)/N=C(\N)N(C)N=O)cc1 | – | > 100 | > 100 | > 100 | > 100 | > 100 | > 100 | > 100 | > 100 | > 100 | > 100 | > 100 | > 100 | > 100 | > 100 | > 100 | > 100 | > 100 | > 100 | –
